Test results: patent publication US6783947B1, “Protecting groups for biological labeling” (Dade Behring Marburg GmbH, priority 1999, dated 2004)
Counter-ions that a name gives are not always drawn.

Legend:
[1] = Storage stability of derivatizing agent, monitored by total LOCI assay signal modulation (three-reagent protocol); format: physicochemical
Method: A 50 μL mixture of hcy-ABA-sensitizer beads (0.1 mg/ml) and 2 mM TCEP is added to 5 μL hcy serum calibrator in a reaction cuvette, followed by the addition of 50 μL assay buffer. The mixture is incubated for 417 sec. Then, 50 μL of 5 mM BABA is added and followed by 45 μL assay buffer. Following incubation for 157 sec., 50 μL of Ab-coated acceptor beads (at 0.25-0.5 mg/ml) is added. After incubation for 154 sec., the sample is read.
In Table 2, the three-reagent protocol is used as described previously, with 5 mM BABA stored in a different pH buffer as R-2 (reagent 2).
The activity of BABA is monitored by the amount of total assay signal modulation obtained by LOCI using the three-reagent protocol.
The three-reagent assay protocol using CABA-phosphate as derivatizing agent is also assessed. Similar results are obtained with hcy serum calibrators as in the three-reagent protocol using BABA (not shown). The stability of CABA is also studied. The activity of CABA-phosphate as derivatizing agent is monitored by the amount of total assay signal modulation obtained by LOCI using the three-reagent protocol. In Table 3, the three-reagent assay protocol is used with CABA-phosphate stored at two temperatures in pH 9.0 as R-2; mixed hcy-sensitizer beads and TCEP as R-1; mixed Ab-acceptor beads and alkaline phosphatase as R-3.

[2] = Stability of alkylating reagent in the presence of reducing agent TCEP (TLC); format: physicochemical; settings: 5 mM each in phosphate buffer pH 7, sixteen (16) hours, room temperature
Solubility = format: physicochemical; settings: over a wide pH range
[3] = target: T1, alkaline phosphatase (Sigma, human placenta) (Homo sapiens, UniProt P05187); test: Deprotection of phosphate protecting group by alkaline phosphatase (TLC, NMR); format: biochemical; settings: mixture of BABA-phosphate and CABA-phosphate, 5 mg in 1 mL pH 8-9 NaOD/D2O, 1 mg (15 units) enzyme, 15 minutes, room temperature
T1 construct: alkaline phosphatase (Sigma, human placenta); purchased Sigma; host or cells: human placenta (tissue-derived)
T1 sequence (P05187 23-506): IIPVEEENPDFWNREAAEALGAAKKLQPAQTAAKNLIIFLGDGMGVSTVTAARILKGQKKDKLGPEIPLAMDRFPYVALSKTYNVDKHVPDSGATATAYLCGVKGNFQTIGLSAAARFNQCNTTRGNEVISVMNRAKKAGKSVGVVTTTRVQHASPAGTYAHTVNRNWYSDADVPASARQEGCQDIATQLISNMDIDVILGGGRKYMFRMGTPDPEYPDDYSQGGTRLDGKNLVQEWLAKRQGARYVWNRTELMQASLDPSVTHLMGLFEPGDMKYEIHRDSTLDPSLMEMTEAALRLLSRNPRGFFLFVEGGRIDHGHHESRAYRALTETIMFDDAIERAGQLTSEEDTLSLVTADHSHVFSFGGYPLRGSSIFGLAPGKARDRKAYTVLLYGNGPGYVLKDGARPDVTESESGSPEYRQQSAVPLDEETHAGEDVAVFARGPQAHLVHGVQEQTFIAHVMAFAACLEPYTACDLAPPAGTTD
Method: A mixture of BABA-phosphate and CABA-phosphate (resulting from preparation of BABA-phosphate), 5 mg in 1 mL pH 8-9 NaOD/D2O is treated with 1 mg (15 units) of alkaline phosphatase (Sigma, human placenta) for 15 minutes at room temperature.
Reaction of the crude product of the reaction with alkaline phosphatase, for about ten (10) minutes, with cysteine, results in the disappearance of the first product, deprotected alkylating reagent, and appearance of a more polar product. The latter is assumed to be an adduct of the alkylating reagent and cysteine.

| stability of BABA in solution ([1]; even at the optimum condition, pH 6.0) | reaction of the protected alkylating reagent with TCEP (TLC) [2] | solubility (Solubility) | % Modulation (0 to 60 μM) ([1]; 5 mM in 50 mM borate buffer pH 9.0, stored @4° C., 1 wk) | % Modulation (0 to 60 μM) ([1]; 5 mM in 50 mM borate buffer pH 9.0, stored @4° C., 2 wks) | % Modulation (0 to 60 μM) ([1]; 5 mM in 50 mM borate buffer pH 9.0, stored @4° C., 5 wks) | % Modulation (0 to 60 μM) ([1]; 5 mM in 50 mM borate buffer pH 9.0, stored @4° C., 7 wks) | % Modulation (0 to 60 μM) ([1]; 5 mM in 50 mM borate buffer pH 9.0, stored @4° C., 10 wks) | % Modulation (0 to 60 μM) ([1]; 5 mM in 50 mM borate buffer pH 9.0, stored @4° C., 13 wks) | % Modulation (0 to 60 μM) ([1]; 5 mM in 50 mM borate buffer pH 9.0, stored @4° C., o/n) | % Modulation (0 to 60 μM) ([1]; 5 mM in 50 mM borate buffer pH 9.0, stored @37° C., 1 wk) | % Modulation (0 to 60 μM) ([1]; 5 mM in 50 mM borate buffer pH 9.0, stored @37° C., 2 wks) | % Modulation (0 to 60 μM) ([1]; 5 mM in 50 mM borate buffer pH 9.0, stored @37° C., 5 wks) | % Modulation (0 to 60 μM) ([1]; 5 mM in 50 mM borate buffer pH 9.0, stored @37° C., 7 wks) | % Modulation (0 to 60 μM) ([1]; 5 mM in 50 mM borate buffer pH 9.0, stored @37° C., 10 wks) | % Modulation (0 to 60 μM) ([1]; 5 mM in 50 mM borate buffer pH 9.0, stored @37° C., 13 wks) | % Modulation (0 to 60 μM) ([1]; 5 mM in 50 mM borate buffer pH 9.0, stored @37° C., o/n) | shelf life compared with BABA ([1]; three-reagent protocol, Table 3) | removal of the phosphate group by alkaline phosphatase (TLC, NMR) [3] | Structure (SMILES) |
| --- | --- | --- | --- | --- | --- | --- | --- | --- | --- | --- | --- | --- | --- | --- | --- | --- | --- | --- | --- |
| limited stability | – | – | – | – | – | – | – | – | – | – | – | – | – | – | – | – | – | – | O=C(O)c1ccc(C(=O)CBr)cc1 [BABA, bromoacetylbenzoic acid, reference compound] |
| – | resistant to reaction with TCEP | readily soluble | 54% | 56% | 55% | 54% | 51% | 45% | 57% | 45% | 51% | 50% | 51% | 44% | 35% | 55% | much longer shelf life than BABA | removed | O=C(O)c1ccc(/C(=C/Cl)OP(=O)(O)O)cc1 [CABA-phosphate, 4-(chloroacetyl)benzoate enol-phosphate sodium salt] |
